Test [1] concerns CaV current in rat sensory neurons (DRG). Put plainly: cells. The class given is cell-based, rat (adult male Sprague Dawley).
Test [2] has as its system rat α9α10 nAChRs. The format is cell-based.
Test [3] deals with N-type CaV (CaV2.2) current in sensory neurons. To be noted: cited from earlier work.
The subject of test [4] is human GABAB receptor. The conditions noted are these: cited from earlier work.
Test [5] deals with GABAB receptors expressed in Xenopus laevis oocytes. To be noted: cited from earlier work.
In test [6] the test system is eEPSCs in the dorsal horn of rat spinal cord. The conditions noted are these: cited from earlier work.
Test [7] deals with animal pain models. To be noted: in vivo; cited from earlier work.
The subject of test [8] is α9α10 nAChRs. The conditions noted are these: cited from earlier work.
Test [9] concerns nAChRs subtypes containing the α3 subunit. To be noted: cited from earlier work.

“Also recorded” adds a separate entry of the source.

In the case of Vc1.1, in [1], the “CaV current inhibition in the neuron with the largest Vc1.1 and RgIA response” value turned out to be 41%; the “CaV current inhibition in the neuron with the largest baclofen response” value came out at 3.5%; the “average CaV current inhibition in neurons with baclofen responses of 20 − 24%” value came to 4.3 ± 6.6%; the “enhancement of CaV current inhibition by BSA” value is reported as “no enhancement of the CaV current inhibition was observed”. Also, in test [1], the “inhibition of CaV current in example neuron” value came out at 40%, the “postpulse CaV current inhibition” value turned out to be 6.2 ± 12.5%, the “prepulse CaV current inhibition” value was found to be 6.5 ± 12.7% and the “recovery τ from CaV current block” value is given as 0.5 ± 0.2 min. In test [1], the “reversibility of CaV current block” value was “readily reversible; also recorded: almost full recovery from inhibition” and the “voltage dependence of CaV current inhibition” value is “not voltage-dependent”. In test [1] (1 µM), the “average CaV current inhibition (as summarised in discussion)” value was determined as 7%, the “average effect on CaV current (in words)” value was “only minimal inhibition” and the “neurons responding with CaV current inhibition >10%” value was 19%. In addition, the “block of ACh-induced current” value in test [2] came to 85 ± 13%. For the same substance, in test [3], the “GABAB dependence of N-type CaV current inhibition” value is “requires functional GABAB receptors”, the “reversibility of CaV current block” value is recorded as “irreversible” and the “sensory neurons with CaV current inhibited” value is roughly 75%. The “effect on binding of [^3H]CGP-54626, a specific competitive antagonist” value in test [4] is “failed to block binding; also recorded: Neither Vc1.1 or RgIA were able to prevent the binding”. Besides, the “activation of GABAB receptors” value in test [5] was “do not activate GABAB receptors; also recorded: failed to activate GABAB receptors”. Further, the “effect on eEPSCs / EPSPs in dorsal horn” value in test [6] is “does not affect excitatory neurotransmitter release; also recorded: no inhibition of EPSPs; also recorded: failed to affect”. Moreover, in test [7], the “antinociceptive / analgesic effect” value was “antinociceptive effects”. Also, the “antagonism of α9α10 nAChRs” value in [8] was “potent antagonists”. Besides, the “antagonism of nAChRs containing the α3 subunit” value in test [9] is on record as “weakly antagonizes”.

The values are drawn from publication PMC4465272 (eNeuro, 2015).
